# Tests used:
# Pcs = target: T1, Pcs (Rhizobium redzepovicii, UniProt A0AAW8P1U5); experiment: TLC of lipids from expressing E. coli cells, CuSO4 stain; type: cell-based; conditions: endogenous CDP-DAG, 30 °C, 20 h
# T1 construct: pET28b (NdeI/XhoI), expressed in E. coli BL21 (DE3) cells, not purified
# T1 sequence (A0AAW8P1U5 1-242): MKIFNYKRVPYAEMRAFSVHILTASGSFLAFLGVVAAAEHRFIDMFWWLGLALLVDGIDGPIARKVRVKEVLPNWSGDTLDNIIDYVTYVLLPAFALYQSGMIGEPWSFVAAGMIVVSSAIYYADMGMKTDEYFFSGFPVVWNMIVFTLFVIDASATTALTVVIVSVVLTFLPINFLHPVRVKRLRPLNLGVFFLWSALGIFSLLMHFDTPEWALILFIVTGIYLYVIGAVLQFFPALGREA
# PmtR1 = target: T2, PmtR1 (Rhizobium leguminosarum, UniProt A0A2Z4YNE2); experiment: in vitro methylation, lipid extraction and TLC with CuSO4 stain; type: biochemical; conditions: SAM; […] KH2PO4 pH […]; […] Triton X-100; […] °C, […] h; with or without PG or CL
# T2 construct: gene DLJ82_4359; His-tagged, pET24b, E. coli BL21 (DE3), Ni-IDA and SEC; 23-25 kDa
# T2 sequence (A0A2Z4YNE2 1-217): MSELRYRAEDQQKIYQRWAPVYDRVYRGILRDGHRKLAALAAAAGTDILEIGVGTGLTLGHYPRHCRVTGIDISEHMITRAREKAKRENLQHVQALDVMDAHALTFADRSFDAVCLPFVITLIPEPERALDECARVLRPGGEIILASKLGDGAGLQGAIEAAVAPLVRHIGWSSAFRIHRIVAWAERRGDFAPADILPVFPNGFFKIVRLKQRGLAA
# PmtS2 = target: T3, PmtS2 (Rhizobium leguminosarum, UniProt A0A2Z4YJT5); experiment: as above; type: biochemical; conditions: SAM; […] KH2PO4 pH […]; […] Triton X-100; […] °C, […] h; with or without PG or CL
# T3 construct: gene DLJ82_3306; His-tagged, synthetic gene in pET28b, E. coli BL21 (DE3), Ni-IDA and SEC, one unknown co-purifying protein; 23-25 kDa
# T3 sequence (A0A2Z4YJT5 1-199): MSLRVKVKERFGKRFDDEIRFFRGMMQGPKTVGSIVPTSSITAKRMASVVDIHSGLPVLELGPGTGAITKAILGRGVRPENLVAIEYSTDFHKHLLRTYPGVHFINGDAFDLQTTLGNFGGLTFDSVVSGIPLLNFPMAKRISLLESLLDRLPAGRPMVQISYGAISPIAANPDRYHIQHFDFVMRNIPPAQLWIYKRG
# PmtS1 = target: T4, PmtS1 (Rhizobium leguminosarum, UniProt A0A2Z4YHW5); experiment: as above; type: biochemical; conditions: SAM; […] KH2PO4 pH […]; […] Triton X-100; […] °C, […] h; with or without PG or CL
# T4 construct: gene DLJ82_3449; His-tagged, pET24b, E. coli BL21 (DE3), Ni-IDA and buffer exchange only (partly pure); 23-25 kDa
# T4 sequence (A0A2Z4YHW5 1-223): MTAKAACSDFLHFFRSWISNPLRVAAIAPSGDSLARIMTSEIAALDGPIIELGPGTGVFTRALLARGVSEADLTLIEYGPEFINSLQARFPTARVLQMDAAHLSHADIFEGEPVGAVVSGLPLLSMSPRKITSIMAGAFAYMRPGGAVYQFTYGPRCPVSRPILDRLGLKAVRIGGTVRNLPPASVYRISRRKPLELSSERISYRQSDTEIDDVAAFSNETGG
Compound,"in vitro methylation, lipid extraction and TLC with CuSO4 stain (PmtR1)","in vitro methylation, lipid extraction and TLC with CuSO4 stain (PmtS2)",other results
"CN(C)CCO [DMEA, 2-(dimethylamino)ethanol]",,,"TLC of lipids from expressing E. coli cells, CuSO4 stain (Pcs; M9 minimal medium with 1 mM DMEA): effectively converting these methylated substrates into MMPE and DMPE (Fig. 2B)"
"CCCCCCCC/C=C\CCCCCCCC(=O)OC[C@H](COP(=O)(O)OCCN(C)C)OC(=O)CCCCCCC/C=C\CCCCCCCC [DMPE, 1,2-dioleoyl-sn-glycero-3-phosphoethanolamine-N,N-dimethyl]",DMPE proved to be the most efficiently used substrate for PmtR1,"DMPE was methylated to PC, and this activity was stimulated by PG",
"CCCCCCCC/C=C\CCCCCCCC(=O)OC[C@H](COP(=O)(O)OCCNC)OC(=O)CCCCCCC/C=C\CCCCCCCC [MMPE, 1,2-dioleoyl-sn-glycero-3-phosphoethanolamine-N-methyl]","When MMPE was employed as a substrate, only barely detectable amounts of PC were synthesized",,
"CCCCCCCC/C=C\CCCCCCCC(=O)OC[C@H](COP(=O)(O)OCCN)OC(=O)CCCCCCC/C=C\CCCCCCCC [PE, 1,2-dioleoyl-sn-glycero-3-phosphoethanolamine]",,PE was methylated to MMPE and small amounts of DMPE and PC,"in vitro methylation, lipid extraction and TLC with CuSO4 stain (PmtS1): the conversion of only PE to MMPE by the purified protein (Fig. 4A)"
C[N+](C)(C)CCO [choline],,,"TLC of lipids from expressing E. coli cells, CuSO4 stain (Pcs; M9 minimal medium with 1 mM choline): PC formation was restored upon choline supplementation (Fig. 2B)"
